# Patent US4230725A, “Antiviral agent” (Sumitomo Chemical Company, Limited, priority 1977, dated 1980)
# Counter-ions that a name gives are not always drawn. Like-named read-outs stand apart in the source and are kept apart here.
# How the values were obtained:
# [1] = test system: herpes simplex virus type I (HF strain); assay: Effect on the growth of herpes virus in tissue cultures (tube dilution method); format: cell-based; conditions: for MIC: read-out: MIC (minimum virus growth inhibitory concentration); for MIC (minimum virus growth inhibitory concentration): host cells KB
# Experimental: The antiviral activity was examined by the tube dilution method. HeLa cells and KB cells for the assay were cultured in YLE medium and Eagle MEM medium in vitro, respectively, containing 10% fetal calf serum. After the cells were grown in a monolayer form, the medium was exchanged to the fresh medium supplemented with 2% fetal calf serum, and then about 1000 TCD50 of herpes simplex virus type I (HF strain) and the test compound were added. After 72 hours' incubation at 37° C., the cytotoxicity of the compound and the virus induced cytopathic effect (CPE) were observed microscopically.
# The antiviral activity was expressed in minimum virus growth inhibitory concentration (MIC) and minimum cytotoxic concentration (MCC) in Table 1.
# Influenza Ao PR/8 = format: in vivo, ddY male mice; conditions: 7 days after infection, dose 0: 4.8
# in vitro [2] = conditions: human, hela cells
# in vitro [3] = conditions: human, kb cells
# [4] = test system: herpes and influenza viruses; assay: Antiviral activity, overall statement; conditions: against herpes and influenza viruses; in vivo as well as in vitro
# eyes of a rabbit = assay: Herpes keratitis in rabbit: toxicity control eyes (scratched, not infected); format: in vivo; conditions: 0.5% eye lotion
# Experimental: After 2% cocaine was applied to the eyes of a rabbit anesthetized with barbital, the corneal epithelium of each eye was scratched and infected with herpes simplex virus type I (HF strain).
# The treatment with the compound A was carried out as follows: Twelve hours after virus infection, 0.5% eye lotion of the compound A in 1.4% polyvinyl alcohol was applied every two hours, five times a day during seven days.
# For seven days after infection, the lesions on the conjunctiva, cornea and iris were daily observed visually prior to the first treatment and recorded according to the scoring method.
# Separately from this, eyes of a rabbit were scratched but not infected with virus, one of the eyes was similarly treated with the compound A and the other eye was treated with 1.4% polyvinyl alcohol as toxicity control.
# Acute toxicity in mice = conditions: mouse, in vivo
# [5] = test system: herpes simplex virus type I (HF strain); assay: Therapeutic effect on herpes encephalitis in mice; format: in vivo; conditions: for Survival ratio: 21st day, untreated 0/10; for Mean survival term: 21 days
# Experimental: Mice were anesthetized with ether and were infected intracerebrally […] with about 30 LD50 of herpes simplex virus type I (HF strain). The infected mice were administered with the compound A according to various therapeutic schedules. The therapeutic effects of the compound A were examined on the basis of the survival ratios at the 3rd week after virus infection and the mean survival days.
# ^a Dose of administration
# ^b Administration schedule of each route was as follows:
# i.c. (intracerebrally): Single administration simultaneously with virus
# p.o. (per os): Two administrations per day during 8.5 days from 4 hours
# s.c. (subcutaneously): Two administrations per day during 8.5 days from 4
# hours after virus infection.
# i.v. (intravenously): Single administration 3 hours after virus infection
# ^c The animals were examined for 21 days after infection, and mean
# survival term was determined.
# ^d Survival ratio on the 21st day after virus infection.
# [6] = about 1000 TCD50, 72 hours at 37° C.
smiles,measurement,setting,value
"NC12CC3CC(CC(C3)C1)C2 [Amantadine hydrochloride, reference compound]",MIC,[1]; 72 h,50 mg/L
same,MIC (minimum virus growth inhibitory concentration),[1]; [6],50 mg/L
same,Lung Lesion Score,"Influenza Ao PR/8; 10 mg/kg subcutaneous, *P < 0.05",4.3
same,Lung Lesion Score,"Influenza Ao PR/8; 25 mg/kg subcutaneous, *P < 0.05",4.1
same,Lung Lesion Score,"Influenza Ao PR/8; 50 mg/kg subcutaneous, *P < 0.05",4.0
same,MCC at 72 h,in vitro [2],> 50 µg/mL
same,MCC at 72 h,in vitro [3],> 50 µg/mL
"Cl.NC12CCCC(C1)C1CCC2C1 (stereo not drawn) [Compound A, 1-Amino-2,4-ethanobicyclo[3,3,1]nonane hydrochloride]",MIC,"[1]; host cells HeLa, about 1000 TCD50, 72 hours at 37° C.",2.5 mg/L
same,MIC (minimum virus growth inhibitory concentration),[1]; [6],2.5 mg/L
same,antiviral activity,[4],very strong antiviral activity
same,effect on cure period as compared with the toxicity control,"eyes of a rabbit; five times a day during seven days, scratched uninfected rabbit eyes",did not prolong the cure period
same,toxicity of the eye lotion,eyes of a rabbit; rabbit eyes,no toxicity
same,Lung Lesion Score,"Influenza Ao PR/8; 7.5 mg/kg subcutaneous, no asterisk",4.4
same,Lung Lesion Score,"Influenza Ao PR/8; 15 mg/kg subcutaneous, *P < 0.05",4.2
same,Lung Lesion Score,"Influenza Ao PR/8; 30 mg/kg subcutaneous, *P < 0.05",4.0
same,LD50,Acute toxicity in mice; iv,58 mg/kg
same,LD50,Acute toxicity in mice; po,320 mg/kg
same,MCC at 72 h,in vitro [2],100 µg/mL
same,Survival ratio,"[5]; 5 mg/kg i.c., single administration simultaneously with virus infection",6/10
same,Mean survival term,"[5]; 5 mg/kg i.c., single administration simultaneously with virus infection, untreated 5.7",8.3 days
same,Survival ratio,"[5]; 10 mg/kg i.v., single administration 3 hours after infection",4/10
same,Mean survival term,"[5]; 10 mg/kg i.v., single administration 3 hours after infection, untreated 5.8",8.1 days
same,Survival ratio,"[5]; 100 mg/kg p.o., two per day during 8.5 days from 4 hours after infection",4/10
same,Mean survival term,"[5]; 100 mg/kg p.o., two per day during 8.5 days from 4 hours after infection, untreated 5.5",7.7 days
same,Survival ratio,"[5]; 100 mg/kg s.c., two per day during 8.5 days from 4 hours after infection",5/10
same,Mean survival term,"[5]; 100 mg/kg s.c., two per day during 8.5 days from 4 hours after infection, untreated 5.7",7.6 days
same,MCC at 72 h,in vitro [3],100 µg/mL
